# Measurements published in US12673077B2, “Anthelmintic probiotic compositions and methods” (priority 2014, dated 2026).
# Read-outs that look alike come from different tables or passages of the source.
# B1: Cry5B: Bacillus thuringiensis crystal (Cry) protein Cry5B, purified protein (sequence FIG. 2, SEQ ID NO:1) (protein, listed as Bacillus thuringiensis)
# chain: MATINELYPVPYNVLAHPIKEVDDPYSWSNLLKGIQEGWEEWGKTGQKKLFEDHLTIAWNLYKTGKLDYFALTKASISLIGFIPGAEAAVPFINMFVDFVWPKLFGANTEGKDQQLFNAIMDAVNKMVDNKFLSYNLSTLNKTIEGLQGNLGLFQNAIQVAICQGSTPERVNFDQNCTPCNPNQPCKDDLDRVASRFDTANSQFTQHLPEFKNPWSDENSTQEFKRTSVELTLPMYTTVATLHLLLYEGYIEFMTKWNFHNEQYLNNLKVELQQLIHSYSETVRTSFLQFLPTLNNRSKSSVNAYNRYVRNMTVNCLDIAATWPTFDTHNYHQGGKLDLTRIILSDTAGPIEEYTTGDKTSGPEHSNITPNNILDTPSPTYQHSFVSVDSIVYSRKELQQLDIATYSTNNSNNCHPYGLRLSYTDGSRYDYGDNQPDFTTSNNNYCHNSYTAPITLVNARHLYNAKGSLQNVESLVVSTVNGGSGSCICDAWINYLRPPQTSKNESRPDQKINVLYPITETVNKGTGGNLGVISAYVPMELVPENVIGDVNADTKLPLTQLKGFPFEKYGSEYNNRGISLVREWINGNNAVKLSNSQSVGIQITNQTKQKYEIRCRYASKGDNNVYFNVDLSENPFRNSISFGSTESSVVGVQGENGKYILKSITTVEIPAGSFYVHITNQGSSDLFLDRIEFVPKIQFQFCDNNNLHCDCNNPVDTDCTFCCVCTSLTDCDCNNPRGLDCTLCCQVENQLPSFVTLTDLQNITTQVNALVASSEHDTLATDVSDYEIEEVVLKVDALSGEVFGKEKKALRKLVNHTKRLSKARNLLIGGNFDNLDAWYRGRNVVNVSDHELFKSDHVLLPPPTLYSSYMFQKVEESKLKANTRYTVSGFIAHAEDLEIVVSRYGQEVKKVVQVPYGEAFPLTSRGAICCPPRSTSNGKPADPHFFSYSIDVGTLDVEANPGIELGLRIVERTGMARVSNLEIREDRPLKKNELRNVQRAARNWRTAYDQERAEVTALIQPVLNQINALYENEDWNGAIRSGVSYHDLEAIVLPTLPKLNHWFMSDMLGEQGSILAQFQEALDRAYTQLEESTILHNGHFTTDAANWTIEGDAHHAILEDGRRVLRLPDWSSSVSQTIEIENFDPDKEYQLVFHAQGEGTVSLQHGEEGEYVETHPHKSANFTTSHRQGVTFETNKVTVEITSEDGEFLVDHIALVEAPLPTDDQSSDGNTTSNTNSNTSMNNNQ
# modifications: pesticidal crystal (Cry)
# Columns and labels:
# [1] = test system: A. ceylanicum; conditions: cited from earlier work; for % Parasite reduction: hamsters
# [2] = test system: Ancylostoma ceylanicum hookworms; assay: A. ceylanicum hookworm curative experiment in hamsters (worm burdens, fecal egg counts); format: in vivo; conditions: single 10 mg/kg (71 nmol/kg) Cry5B dose per os
# Experimental: (A) Intestinal hookworm burdens in nine hamsters following treatment with PY79-vector or PY79-Cry5B (10 mg/kg Cry5B) (error bars in all panels show standard errors). The average worm burdens were 18.6±2.6 and 1.3±0.3 for PY79-vector and PY79-Cry5B, respectively. (B) Fecal egg counts on day −1, day +1, and day +3 relative to the day of treatment. The actual egg counts for PY79-vector and PY79-Cry5B were 965±193 and 1,044±99, respectively, on day −1, 1,055±230 and 94±60, respectively, on day +1, and 1,055±227 and 100±42, respectively, on day +3. EPG, eggs per gram of feces. (C) In vivo dose-response experiment with 12 hamsters. […]
# For in vivo curative experiments, male hamsters were infected per os with 150 A. ceylanicum infectious larvae. On day 17 postinoculation (p.i.), a fecal sample was collected from each hamster, and the number of eggs was counted using the modified McMaster technique (13). […] The hamsters were sacrificed on day 22 p.i., and intestinal parasite burdens were determined as described previously (14). The one-tailed Mann-Whitney test was performed to compare the two groups for significance in the experiment using a dose of 10 mg/kg of body weight (data were calculated and plotted using Prism 5 [GraphPad Software Inc., La Jolla, CA]). […]
Molecule,% Parasite reduction ([1]; 10 mg/kg) [%],also measured
"c1ccc([C@H]2CN3CCSC3=N2)cc1 [Levamisole, levamisole]",60,–
"CCCSc1ccc2nc(NC(=O)OC)[nH]c2c1 [Albendazole, albendazole]",–,% Parasite reduction ([1]; 1.25 mg/kg (4.7 μmol/kg)): 88%
"CN1CCCN=C1/C=C/c1cccs1 [Pyrantel, pyrantel]",87,–
"C/C(=N/c1ccc(/N=C/c2ccc(/C=N/c3ccc(/N=C(/C)N(C)C)cc3)cc2)cc1)N(C)C [Tribendimidine, tribendimidine]",75,–
B1,–,"% reduction of hookworm burden ([1]; purified protein 10 mg/kg, previously published data (ref 14)): 65%; % reduction of hookworm burden relative to control [2]: 93%"
